Assay results published in paper PMC2528830 (British Journal of Pharmacology, 2008).

Key:
GPR119 [1] = molecular target: T1, GPR119 (Homo sapiens, UniProt Q8TDV5); assay: cAMP accumulation in HEK293-GPR119 vs untransfected cells; assay type: cell-based
T1 sequence (Q8TDV5 1-335): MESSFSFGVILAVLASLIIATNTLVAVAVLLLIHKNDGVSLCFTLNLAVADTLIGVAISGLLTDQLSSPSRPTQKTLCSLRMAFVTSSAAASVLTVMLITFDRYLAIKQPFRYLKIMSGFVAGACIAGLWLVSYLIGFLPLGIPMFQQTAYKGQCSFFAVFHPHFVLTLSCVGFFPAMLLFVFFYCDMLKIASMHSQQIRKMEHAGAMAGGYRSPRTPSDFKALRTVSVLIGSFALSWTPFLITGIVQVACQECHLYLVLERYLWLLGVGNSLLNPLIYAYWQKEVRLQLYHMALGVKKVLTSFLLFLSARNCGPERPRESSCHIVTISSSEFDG

GPR119 [2] = molecular target: T1, GPR119; assay: insulin secretion at […] in RINm5f-GPR119 vs parental RINm5f cells; assay type: cell-based

Row | EC50 (GPR119 [1]) | SMILES | insulin secretion at 10 μM in RINm5f-GPR119 vs parental RINm5f cells (GPR119 [2])
1 | 13.9 µM | CCCC[C@H]1CC[C@H](c2nc(-c3ccncc3)no2)CC1 [PSN375963] | 
2 |  | CCCCCCCC/C=C\CCCCCCCC(=O)NCCO [oleoylethanolamide] | RINm5f cells transfected with human GPR119 (RIN-119 cells) responded to OEA and had an increased response to OLPC
